This is an account of results in patent publication US12539292B2, “BRM targeting compounds and associated methods of use” (Arvinas Operations, Inc., priority 2018, dated 2026).

Like-named read-outs stand apart in the source and are kept apart here.

This assay deals with T1, BRM (Homo sapiens, UniProt P51531).
T1 construct: In-Cell Western Screen of BRM Degradation in SW1573 Cells; endogenous in cells; host or cells: SW1573
Description: In-cell Western screen of BRM degradation in SW1573 cells (Dmax and DC50). It is filed as cell-based. The method, boiled down: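 Adherent SW1573 cultures exposed to test compounds for 18-20 h were processed for in-cell Western after PFA fixation and detergent permeabilization. BRM degradation was reported as Dmax and DC50.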

Where [1] appears, read: SW1573, % degraded, when tested at the top concentration of between 0.3 and 10 μM, read-out: BRM Dmax (%).
The mark [2] stands for this setting: target protein degradation, read-out: BRM DC50.
Where [3] appears, read: BRM degradation, read-out: BRM DC50.
The mark [4] stands for this setting: BRM degradation, SW1573 cells, read-out: DC50.
[5] abbreviates: BRM degradation, SW1573 cells, tested at the top concentration of between 0.3 and 10 μM, read-out: Dmax (%) (% degraded).

T1 sequence (P51531 whole entry): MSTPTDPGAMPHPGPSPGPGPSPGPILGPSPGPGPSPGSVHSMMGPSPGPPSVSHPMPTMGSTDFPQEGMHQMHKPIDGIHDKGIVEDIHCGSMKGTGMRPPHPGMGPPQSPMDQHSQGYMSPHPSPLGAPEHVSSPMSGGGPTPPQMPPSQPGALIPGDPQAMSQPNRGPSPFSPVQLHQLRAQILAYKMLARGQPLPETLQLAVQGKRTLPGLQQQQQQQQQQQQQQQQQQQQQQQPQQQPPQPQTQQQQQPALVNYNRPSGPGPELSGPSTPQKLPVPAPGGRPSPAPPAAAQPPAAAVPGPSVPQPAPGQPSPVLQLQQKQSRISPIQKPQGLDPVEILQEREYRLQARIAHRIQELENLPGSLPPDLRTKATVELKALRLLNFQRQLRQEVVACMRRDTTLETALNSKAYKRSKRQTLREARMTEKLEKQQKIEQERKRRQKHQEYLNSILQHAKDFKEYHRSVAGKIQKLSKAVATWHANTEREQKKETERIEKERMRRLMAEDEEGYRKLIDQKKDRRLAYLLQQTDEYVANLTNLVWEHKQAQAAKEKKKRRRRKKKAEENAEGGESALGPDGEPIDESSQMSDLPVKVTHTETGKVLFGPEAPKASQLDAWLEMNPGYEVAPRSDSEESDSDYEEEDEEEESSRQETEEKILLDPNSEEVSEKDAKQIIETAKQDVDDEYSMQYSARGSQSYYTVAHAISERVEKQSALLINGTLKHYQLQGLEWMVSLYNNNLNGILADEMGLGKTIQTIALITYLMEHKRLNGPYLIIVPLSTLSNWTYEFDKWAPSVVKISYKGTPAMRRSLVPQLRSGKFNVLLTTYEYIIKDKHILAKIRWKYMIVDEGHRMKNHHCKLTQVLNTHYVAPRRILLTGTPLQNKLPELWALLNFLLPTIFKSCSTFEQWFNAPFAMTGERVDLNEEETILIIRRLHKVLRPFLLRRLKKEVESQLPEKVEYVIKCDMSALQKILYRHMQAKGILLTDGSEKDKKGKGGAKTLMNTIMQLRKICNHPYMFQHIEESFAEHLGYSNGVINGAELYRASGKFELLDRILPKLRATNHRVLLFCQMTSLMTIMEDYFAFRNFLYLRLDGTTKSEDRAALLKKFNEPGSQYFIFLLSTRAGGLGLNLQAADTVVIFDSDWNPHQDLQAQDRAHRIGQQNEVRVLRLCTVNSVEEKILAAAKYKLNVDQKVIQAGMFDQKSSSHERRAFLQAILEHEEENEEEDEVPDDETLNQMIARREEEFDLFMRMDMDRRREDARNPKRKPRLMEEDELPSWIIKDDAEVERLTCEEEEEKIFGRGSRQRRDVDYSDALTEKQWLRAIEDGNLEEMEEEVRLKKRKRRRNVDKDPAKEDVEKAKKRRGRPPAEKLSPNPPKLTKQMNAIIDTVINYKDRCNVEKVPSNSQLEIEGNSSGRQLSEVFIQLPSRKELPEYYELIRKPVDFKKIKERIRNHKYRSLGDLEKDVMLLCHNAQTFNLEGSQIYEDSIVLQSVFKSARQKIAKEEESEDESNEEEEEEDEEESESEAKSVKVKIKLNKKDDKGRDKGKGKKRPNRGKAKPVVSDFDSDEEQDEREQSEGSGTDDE

As to `CC(C)[C@H](C(=O)N1C[C@H](O)C[C@H]1C(=O)N[C@@H](C)c1ccc(C#N)cc1)c1cc(OCC#Cc2ncc(O[C@H]3C[C@H](Oc4cc(N5C6CCC5CN(c5cc(-c7ccccc7O)nnc5N)C6)ccn4)C3)cn2)no1` [compound 386, (2S,4R)-1-((2S)-2-(3-((3-(5-((1r,3S)-3-((4-(3-(3-amino-6-(2-hydroxyphenyl)pyridazin-4-yl)-3,8-diazabicyclo[3.2.1]octan-8-yl)pyridin-2-yl)oxy)cyclobutoxy)pyrimidin-2-yl)prop-2-yn-1-yl)oxy)isoxazol-5-yl)-3-methylbutanoyl)-N-((S)-1-(4-cyanophenyl)ethyl)-4-hydroxypyrrolidine-2-carboxamide], the Dmax under setting [1] is more than 75%. Besides, the DC50 under setting [2] lay in the range of 10 to 30 nM.

As for `Cc1ncsc1-c1ccc([C@H](C)NC(=O)[C@@H]2C[C@@H](O)CN2C(=O)[C@H](c2cc(N3CCN(CC#Cc4ncc(O[C@H]5C[C@H](Oc6cc(N7C8CCC7CN(c7cc(-c9ccccc9O)nnc7N)C8)ccn6)C5)cn4)CC3)no2)C(C)C)cc1` [compound 521, (2S,4R)-1-((2S)-2-(3-(4-(3-(5-((1r,3r)-3-((4-(3-(3-amino-6-(2-hydroxyphenyl)pyridazin-4-yl)-3,8-diazabicyclo[3.2.1]octan-8-yl)pyridin-2-yl)oxy)cyclobutoxy)pyrimidin-2-yl)prop-2-yn-1-yl)piperazin-1-yl)isoxazol-5-yl)-3-methylbutanoyl)-4-hydroxy-N-((S)-1-(4-(4-methylthiazol-5-yl)phenyl)ethyl)pyrrolidine-2-carboxamide], under setting [3], the DC50 was more than 30 nM.

Turning to `Cc1ncsc1-c1ccc([C@H](C)NC(=O)[C@@H]2C[C@@H](O)CN2C(=O)[C@@H](c2cc(N3CCN(CC4CCN(C[C@H]5C[C@H](Oc6cc(N7C8CCC7CN(c7cc(-c9ccccc9O)nnc7N)C8)ccn6)C5)CC4)CC3)no2)C(C)C)cc1` [compound 458, (2S,4R)-1-((2R)-2-(3-(4-((1-(((1r,3r)-3-((4-(3-(3-amino-6-(2-hydroxyphenyl)pyridazin-4-yl)-3,8-diazabicyclo[3.2.1]octan-8-yl)pyridin-2-yl)oxy)cyclobutyl)methyl)piperidin-4-yl)methyl)piperazin-1-yl)isoxazol-5-yl)-3-methylbutanoyl)-4-hydroxy-N-((S)-1-(4-(4-methylthiazol-5-yl)phenyl)ethyl)pyrrolidine-2-carboxamide], the Dmax under setting [1] is more than 75%. Also, the DC50 under setting [2] was less than 2.5 nM.

`Cc1ncsc1-c1ccc([C@H](COCC(C)C)NC(=O)[C@@H]2C[C@@H](O)CN2C(=O)[C@H](c2cc(OCCN3CCN(CCOc4cc(N5C6CCC5CN(c5cc(-c7ccccc7O)nnc5N)C6)ccn4)CC3)no2)C(C)C)cc1` [compound 291, (2S,4R)-1-((2S)-2-(3-(2-(4-(2-((4-(3-(3-amino-6-(2-hydroxyphenyl)pyridazin-4-yl)-3,8-diazabicyclo[3.2.1]octan-8-yl)pyridin-2-yl)oxy)ethyl)piperazin-1-yl)ethoxy)isoxazol-5-yl)-3-methylbutanoyl)-4-hydroxy-N-((R)-2-isobutoxy-1-(4-(4-methylthiazol-5-yl)phenyl)ethyl)pyrrolidine-2-carboxamide]: the DC50 under setting [4] was more than 30 nM.

For `Cc1ncsc1-c1ccc([C@H](C)NC(=O)[C@@H]2C[C@@H](O)CN2C(=O)[C@H](c2cc(OCC[C@H]3CC[C@H](O[C@H]4C[C@H](Oc5cc(N6C7CCC6CN(c6cc(-c8ccccc8O)nnc6N)C7)ccn5)C4)CC3)no2)C(C)C)cn1` [compound 485, (2S,4R)-1-((2S)-2-(3-(2-((1R,4S)-4-((1r,3S)-3-((4-(3-(3-amino-6-(2-hydroxyphenyl)pyridazin-4-yl)-3,8-diazabicyclo[3.2.1]octan-8-yl)pyridin-2-yl)oxy)cyclobutoxy)cyclohexyl)ethoxy)isoxazol-5-yl)-3-methylbutanoyl)-4-hydroxy-N-((S)-1-(6-(4-methylthiazol-5-yl)pyridin-3-yl)ethyl)pyrrolidine-2-carboxamide], under setting [2], the DC50 is more than 30 nM.

As for `Cc1ncsc1-c1ccc([C@H](C)NC(=O)[C@@H]2C[C@@H](O)CN2C(=O)[C@@H](c2cc(N3CCC(CN4CCC(O[C@H]5C[C@H](C#C[C@H](C)n6cc(-c7cc(-c8ccccc8O)nnc7N)cn6)C5)CC4)CC3)no2)C(C)C)cc1` [compound 497, (2S,4R)-1-((R)-2-(3-(4-((4-((1S,3r)-3-((S)-3-(4-(3-amino-6-(2-hydroxyphenyl)pyridazin-4-yl)-1H-pyrazol-1-yl)but-1-yn-1-yl)cyclobutoxy)piperidin-1-yl)methyl)piperidin-1-yl)isoxazol-5-yl)-3-methylbutanoyl)-4-hydroxy-N-((S)-1-(4-(4-methylthiazol-5-yl)phenyl)ethyl)pyrrolidine-2-carboxamide], the DC50 under setting [3] is less than 2.5 nM. Under setting [1], the Dmax was more than 75%.

With `Cc1ncsc1-c1ccc([C@H](C)NC(=O)[C@@H]2C[C@@H](O)CN2C(=O)[C@H](c2cc(N3CCC4(CC3)CN(C[C@H]3C[C@H](Oc5cc(N6C7CCC6CN(c6cc(-c8ccccc8O)nnc6N)C7)ccn5)C3)CCO4)no2)C(C)C)cc1` [compound 623, (2S,4R)-1-((2S)-2-(3-(4-(((1r,3S)-3-((4-(3-(3-amino-6-(2-hydroxyphenyl)pyridazin-4-yl)-3,8-diazabicyclo[3.2.1]octan-8-yl)pyridin-2-yl)oxy)cyclobutyl)methyl)-1-oxa-4,9-diazaspiro[5.5]undecan-9-yl)isoxazol-5-yl)-3-methylbutanoyl)-4-hydroxy-N-((S)-1-(4-(4-methylthiazol-5-yl)phenyl)ethyl)pyrrolidine-2-carboxamide], under “BRM degradation, SW1573 cells, Table 2D, read-out: *DC50”, the half-maximal degradation concentration (DC50) was more than 30 nM.

As for `Cc1ncsc1-c1ccc([C@H](C)NC(=O)[C@@H]2C[C@@H](O)CN2C(=O)[C@@H](c2cc(OCCCC#Cc3ccc(O[C@H]4C[C@H](Oc5cc(N6C7CCC6CN(c6cc(-c8ccccc8O)nnc6N)C7)ccn5)C4)cn3)no2)C(C)C)cc1` [compound 250, (2S,4R)-1-((2R)-2-(3-((5-(5-((1r,3r)-3-((4-(3-(3-amino-6-(2-hydroxyphenyl)pyridazin-4-yl)-3,8-diazabicyclo[3.2.1]octan-8-yl)pyridin-2-yl)oxy)cyclobutoxy)pyridin-2-yl)pent-4-yn-1-yl)oxy)isoxazol-5-yl)-3-methylbutanoyl)-4-hydroxy-N-((S)-1-(4-(4-methylthiazol-5-yl)phenyl)ethyl)pyrrolidine-2-carboxamide], the DC50 under setting [4] is less than 2.5 nM. Moreover, under setting [5], the Dmax is more than 75%.

As for `CC(C)[C@H](C(=O)N1C[C@H](O)C[C@H]1C(=O)N[C@@H](C)c1ccc(-c2nncs2)cc1)c1cc(OCCN2CCC(O[C@H]3C[C@H](Oc4cc(N5C6CCC5CN(c5cc(-c7ccccc7O)nnc5N)C6)ccn4)C3)CC2)no1` [compound 363, (2S,4R)-N-((S)-1-(4-(1,3,4-thiadiazol-2-yl)phenyl)ethyl)-1-((2S)-2-(3-(2-(4-((1r,3S)-3-((4-(3-(3-amino-6-(2-hydroxyphenyl)pyridazin-4-yl)-3,8-diazabicyclo[3.2.1]octan-8-yl)pyridin-2-yl)oxy)cyclobutoxy)piperidin-1-yl)ethoxy)isoxazol-5-yl)-3-methylbutanoyl)-4-hydroxypyrrolidine-2-carboxamide], under setting [2], the DC50 is more than 30 nM.

Regarding `COCc1ncsc1-c1ccc([C@H](C)NC(=O)[C@@H]2C[C@@H](O)CN2C(=O)C(c2cc(OCCN3CCN(CCOc4cc(N5C6CCC5CN(c5cc(-c7ccccc7O)nnc5N)C6)ccn4)CC3)no2)C(C)C)cc1` (stereo partly drawn) [compound 169, (2S,4R)-1-(2-(3-(2-(4-(2-((4-(3-(3-amino-6-(2-hydroxyphenyl)pyridazin-4-yl)-3,8-diazabicyclo[3.2.1]octan-8-yl)pyridin-2-yl)oxy)ethyl)piperazin-1-yl)ethoxy)isoxazol-5-yl)-3-methylbutanoyl)-4-hydroxy-N-((S)-1-(4-(4-(methoxymethyl)thiazol-5-yl)phenyl)ethyl)pyrrolidine-2-carboxamide], the DC50 under setting [4] is less than 2.5 nM. Further, the Dmax under setting [5] was more than 75%.

In the case of `Cc1ncsc1-c1ccc(CNC(=O)[C@@H]2C[C@@H](O)CN2C(=O)C(c2cc(CCCOCCOCCn3cc(-c4cc(-c5ccccc5O)nnc4N)cn3)no2)C(C)C)cc1` (stereo partly drawn) [compound 22, (2S,4R)-1-(2-(3-(3-(2-(2-(4-(3-amino-6-(2-hydroxyphenyl)pyridazin-4-yl)-1H-pyrazol-1-yl)ethoxy)ethoxy)propyl)isoxazol-5-yl)-3-methylbutanoyl)-4-hydroxy-N-(4-(4-methylthiazol-5-yl)benzyl)pyrrolidine-2-carboxamide], the 50% degradation concentration (DC50) under setting [4] is more than 30 nM. Further, the Dmax (BRM degradation, SW1573 cells, when tested at the top concentration of between 0.3 and 10 μM, read-out: Dmax (%) (% degraded)) was more than 75%.

Regarding `Cc1ncsc1-c1ccc([C@H](C)NC(=O)[C@@H]2C[C@@H](OP(=O)(O)O)CN2C(=O)[C@@H](c2cc(OCCN3CCC(O[C@H]4C[C@H](Oc5cc(N6C7CCC6CN(c6cc(-c8ccccc8O)nnc6N)C7)ccn5)C4)CC3)no2)C(C)C)cc1` [compound 459, (3R,5S)-1-((2R)-2-(3-(2-(4-((1r,3R)-3-((4-(3-(3-amino-6-(2-hydroxyphenyl)pyridazin-4-yl)-3,8-diazabicyclo[3.2.1]octan-8-yl)pyridin-2-yl)oxy)cyclobutoxy)piperidin-1-yl)ethoxy)isoxazol-5-yl)-3-methylbutanoyl)-5-(((S)-1-(4-(4-methylthiazol-5-yl)phenyl)ethyl)carbamoyl)pyrrolidin-3-yl dihydrogen phosphate], the Dmax under setting [1] is more than 75%. The DC50 under setting [2] was less than 2.5 nM.
